The NIST ThermoML archive (doi:10.1021/je8008073)

Assay: wn = mass fraction of the nth substance listed
Conditions: Liquid; for mass density: Vibrating tube method; for viscosity: Falling or rolling sphere viscometry

CC(C)Cc1ccccc1 [(2-methylpropyl)benzene] + CCCCCCCCCCCC
Conditions	mass density [kg/m3]	viscosity [mPa·s]
293.15 K, 100 kPa, w2 = 0.5	795.4	–
293.15 K, 2000 kPa, w2 = 0.5	796.7	–
293.15 K, 4000 kPa, w2 = 0.5	798.1	–
293.15 K, 6000 kPa, w2 = 0.5	799.5	–
293.15 K, 8000 kPa, w2 = 0.5	801.1	–
293.15 K, 10000 kPa, w2 = 0.5	802.5	–
293.15 K, 12000 kPa, w2 = 0.5	803.7	–
293.15 K, 14000 kPa, w2 = 0.5	805	–
293.15 K, 16000 kPa, w2 = 0.5	806.3	–
293.15 K, 18000 kPa, w2 = 0.5	807.6	–
293.15 K, 20000 kPa, w2 = 0.5	808.9	–
295.65 K, 100 kPa, w2 = 0.5	793.6	–
295.65 K, 2000 kPa, w2 = 0.5	794.9	–
295.65 K, 4000 kPa, w2 = 0.5	796.3	–
295.65 K, 6000 kPa, w2 = 0.5	797.7	–
295.65 K, 8000 kPa, w2 = 0.5	799.1	–
295.65 K, 10000 kPa, w2 = 0.5	800.5	–
295.65 K, 12000 kPa, w2 = 0.5	801.8	–
295.65 K, 14000 kPa, w2 = 0.5	803.1	–
295.65 K, 16000 kPa, w2 = 0.5	804.3	–
295.65 K, 18000 kPa, w2 = 0.5	805.6	–
295.65 K, 20000 kPa, w2 = 0.5	806.8	–
298.15 K, 100 kPa, w1 = 0.48	789.5	–
298.15 K, 100 kPa, w1 = 0.49	790.4	–
298.15 K, 100 kPa, w1 = 0.5	791.7	–
298.15 K, 100 kPa, w1 = 0.51	792.7	–
298.15 K, 100 kPa, w1 = 0.52	793.6	–
298.15 K, 100 kPa, w2 = 0.5	791.7	1.09
298.15 K, 2000 kPa, w1 = 0.48	790.9	–
298.15 K, 2000 kPa, w1 = 0.49	792	–
298.15 K, 2000 kPa, w1 = 0.5	793.1	–
298.15 K, 2000 kPa, w1 = 0.51	794.1	–
298.15 K, 2000 kPa, w1 = 0.52	795.2	–
298.15 K, 2000 kPa, w2 = 0.5	793.1	–
298.15 K, 4000 kPa, w1 = 0.48	792.4	–
298.15 K, 4000 kPa, w1 = 0.49	793.5	–
298.15 K, 4000 kPa, w1 = 0.5	794.5	–
298.15 K, 4000 kPa, w1 = 0.51	795.7	–
298.15 K, 4000 kPa, w1 = 0.52	796.6	–
298.15 K, 4000 kPa, w2 = 0.5	794.5	1.14
298.15 K, 6000 kPa, w1 = 0.48	793.9	–
298.15 K, 6000 kPa, w1 = 0.49	794.9	–
298.15 K, 6000 kPa, w1 = 0.5	795.9	–
298.15 K, 6000 kPa, w1 = 0.51	797	–
298.15 K, 6000 kPa, w1 = 0.52	797.9	–
298.15 K, 6000 kPa, w2 = 0.5	795.9	–
298.15 K, 8000 kPa, w1 = 0.48	795.3	–
298.15 K, 8000 kPa, w1 = 0.49	796.3	–
298.15 K, 8000 kPa, w1 = 0.5	797.3	–
298.15 K, 8000 kPa, w1 = 0.51	798.4	–
298.15 K, 8000 kPa, w1 = 0.52	799.3	–
298.15 K, 8000 kPa, w2 = 0.5	797.3	–
298.15 K, 10000 kPa, w1 = 0.48	796.6	–
298.15 K, 10000 kPa, w1 = 0.49	797.4	–
298.15 K, 10000 kPa, w1 = 0.5	798.6	–
298.15 K, 10000 kPa, w1 = 0.51	799.7	–
298.15 K, 10000 kPa, w1 = 0.52	800.6	–
298.15 K, 10000 kPa, w2 = 0.5	798.6	1.22
298.15 K, 12000 kPa, w1 = 0.48	797.9	–
298.15 K, 12000 kPa, w1 = 0.49	798.7	–
298.15 K, 12000 kPa, w1 = 0.5	799.9	–
298.15 K, 12000 kPa, w1 = 0.51	801	–
298.15 K, 12000 kPa, w1 = 0.52	801.9	–
298.15 K, 12000 kPa, w2 = 0.5	799.9	–
298.15 K, 14000 kPa, w1 = 0.48	799.2	–
298.15 K, 14000 kPa, w1 = 0.49	800.1	–
298.15 K, 14000 kPa, w1 = 0.5	801.3	–
298.15 K, 14000 kPa, w1 = 0.51	802.3	–
298.15 K, 14000 kPa, w1 = 0.52	803.2	–
298.15 K, 14000 kPa, w2 = 0.5	801.3	–
298.15 K, 16000 kPa, w1 = 0.48	800.5	–
298.15 K, 16000 kPa, w1 = 0.49	801.3	–
298.15 K, 16000 kPa, w1 = 0.5	802.6	–
298.15 K, 16000 kPa, w1 = 0.51	803.5	–
298.15 K, 16000 kPa, w1 = 0.52	804.5	–
298.15 K, 16000 kPa, w2 = 0.5	802.6	–
298.15 K, 18000 kPa, w1 = 0.48	801.7	–
298.15 K, 18000 kPa, w1 = 0.49	802.6	–
298.15 K, 18000 kPa, w1 = 0.5	803.8	–
298.15 K, 18000 kPa, w1 = 0.51	804.7	–
298.15 K, 18000 kPa, w1 = 0.52	805.7	–
298.15 K, 18000 kPa, w2 = 0.5	803.8	–
298.15 K, 20000 kPa, w1 = 0.48	803.1	–
298.15 K, 20000 kPa, w1 = 0.49	803.9	–
298.15 K, 20000 kPa, w1 = 0.5	805.1	–
298.15 K, 20000 kPa, w1 = 0.51	806	–
298.15 K, 20000 kPa, w1 = 0.52	807	–
298.15 K, 20000 kPa, w2 = 0.5	805.1	–
300.65 K, 100 kPa, w2 = 0.5	789.9	–
300.65 K, 2000 kPa, w2 = 0.5	791.2	–
300.65 K, 4000 kPa, w2 = 0.5	792.6	–
300.65 K, 6000 kPa, w2 = 0.5	794	–
300.65 K, 8000 kPa, w2 = 0.5	795.4	–
300.65 K, 10000 kPa, w2 = 0.5	796.8	–
300.65 K, 12000 kPa, w2 = 0.5	798.1	–
300.65 K, 14000 kPa, w2 = 0.5	799.4	–
300.65 K, 16000 kPa, w2 = 0.5	800.7	–
300.65 K, 18000 kPa, w2 = 0.5	802	–
300.65 K, 20000 kPa, w2 = 0.5	803.3	–
303.15 K, 100 kPa, w2 = 0.5	788.1	–
303.15 K, 2000 kPa, w2 = 0.5	789.6	–
303.15 K, 4000 kPa, w2 = 0.5	791.1	–
303.15 K, 6000 kPa, w2 = 0.5	792.5	–
303.15 K, 8000 kPa, w2 = 0.5	794	–
303.15 K, 10000 kPa, w2 = 0.5	795.4	–
303.15 K, 12000 kPa, w2 = 0.5	796.7	–
303.15 K, 14000 kPa, w2 = 0.5	798.1	–
303.15 K, 16000 kPa, w2 = 0.5	799.4	–
303.15 K, 18000 kPa, w2 = 0.5	800.8	–
303.15 K, 20000 kPa, w2 = 0.5	802	–
